Results from patent publication US7875270B2, “Treatment solution and method for preventing posterior capsular opacification by selectively inducing detachment and/or death of lens epithelial cells” (Abbott Medical Optics Inc., priority 2002, dated 2011).

Assays:
in vivo rabbit eyes [1] = assay: In vivo prevention of PCO after cataract operation in rabbit eyes; details: IOLs coated with 300 μm NEM in PBS, dried overnight, inserted into the lens capsular bag
in vivo rabbit eyes [2] = assay: as above; details: 200 or 300 μm NEM in PBS or 170 mM monnitol
Description: The experimental group includes sixteen rabbit eyes and the control group includes four rabbit eyes. A sham cataract operation is performed on the control animals. The therapy is introduced to the others.
The pupil of each rabbit eye is preoperatively dilated with topical G Phenylephrine 10% (Alcon Labs., Inc., China) and G Cyclopentolate 1% (Bausch & Lomb Pharm., Inc., USA) three times in one hour. The rabbits are anesthetized with ketamine hydrochloride (5 mg kg-1) and xylazine hydrochloride (2 mg kg-1) and placed on an operating table. A topical anesthetic (Dieaine hydrochloride 1%) is used every five minutes on two occasions. A wire lid speculum is placed to hold the eyelids open.
A 3.2 mm scleral tunnel incision into the eye is formed at the temporal limbus. The anterior chamber is maintained with viscoelastic substances and a 4-5 mm diameter continuous curvilinear capsularhexis (CCC) is made on the anterior surface of the lens to open its bag. The treatment solution is first introduced in the LECs by hydrodissection. This ensures that the treatment fluid immediately reaches under the entire anterior capsule/LECs. This process allows for (i) separation of the lens cortex from the capsule and lens epithelium, making removal of the lens cortex easier at a later stage of the operation and (ii) the LECs to be exposed to the treatment for enough time (more than five minutes in total time).
The crystalline lens is then removed using phacoemulsification (Universal II, Alcon Labs., Inc., China). The remaining cortex is aspirated thoroughly and removed as completely as possible to expose the LECs. The lens capsular bag is then partially filed with viscoelastic material in order to maintain its shape. The viscoelastic material should not cover the LECs when the treatment solution is applied.
The treatment is spread over the inner surface of the anterior capsular bag (where the LECs attach). The anterior capsular is continuously filled by using a syringe with a bent needle. Care is taken not to over flow the bag. After the treatment solution covered the capsule bag, it is left for five minutes and then removed using a syringe.
In a few cases, IOLs are inserted. […] At the same time, the incision is enlarged to 6.0 mm and a posterior ocular lens (IOLs) (poly-methyl methacrylate, PMMA) with a 6.5 mm optic is prepared and placed into the capsular bag.
The wound is closed with or without suture.
At the completion of the surgical procedure, each rabbit eye receives subconjunctival dexamethasone (0.25 ml) and gentamicin (0.25 ml). Postoperatively, atropine sulphate 1% ophthalmic solution and neomycin sulphate-polymyxin sulphate-dexamethasone ophthalmic ointment are administered twice daily for three weeks.
The animals are evaluated for three weeks and ten weeks. […] All rabbits are evaluated by slitlamp and scored for ocular responses at 1 day and at 1, 2 and 3 weeks. (See FIG. 17, Table 1.) Three and ten weeks after surgery, the animals are anesthetized using a 2 ml intramuscular injection of 11:1 mixture of ketamine hydrochloride and xylazine 20 mg/ml and then killed with a 2 ml intravenous injection of sodium pentobarbital.
The eye globes are enucleated (some of them fixed in neutral buffered formalin 10% solution for 24 hours) and are bisected coronally just anterior to the equator. Gross examination is performed to assess. PCO development. Photographs are taken from behind (Miyake-Apple posterior photographic technique) by using a digital camera fitted to an operating microscope (Leica/Wild MZ-8, Vashaw Scientific, Inc.).
The extent and severity of PCO is scored (see FIG. 17, Table 1) according to methods reported in the literature. The lens capsules are then fixed and evaluated under a microscope (Olumpus, Optical Co. Ltd.) and photographed with a digital camera.

[3] = test system: human LECs-CCCs freshly removed from cataract operation; assay: In situ treatment of LECs attached to capsulorhexis lens capsule (LECs-CCC); format: cell-based; details: 200 or 300 μm NEM in PBS
Description: The in situ effects of a treatment solution comprising dihydrochlorothiazide (DHCT) (a cotransport interference agent from the group of the thiazide and related diuretics) and hyperosmotic NaCl on human LECs is examined. The treatment is tested on LECs that are still attached to a continuous curvilinear capsulorhexis lens capsule (LECs-CCC) which are freshly removed from a human cataract operation.
The LECs-CCCs are obtained from a cataract operation and immediately put in freshly prepared Eagle's Minimum Essential Medium (MEM) supplemented with 2 mM glutamine, 25 mmol/L Hepes (pH 7.4) without foetal cow serum (FCS) and is transferred to the laboratory for evaluation. Viable LECs are identified by staining the LECs-CCCs for five minutes with 0.2% Trypan Blue. The sheets containing more than 70% viable LECs are used to assess the efficacy of the treatment. […]
In the first step, a hyperosmotic solution of NaCl is prepared by making a stock solution of 2 M NaCl by adding 58.44 g NaCl (supplied by Sigma Chemical Co., U.S.) to 500 ml dH2O. The desired concentration of osmotic NaCl is prepared by diluting the 2M stock solution with dH2O. For example, to make a hyperosmotic solution of 170 mM NaCl, the 2M NaCl stock solution was diluted with dH2O at a ratio of […]. To make a hyperosmotic solution of 200 mM NaCl, the 2M NaCl stock solution is diluted with dH2O at a ratio of 1 to 9. Final osmolarities (mOsm/kg/H2O) are determined by a freezing point depression method using cryoscopic osmometry.
In the second step, DHCT stock solution is made by adding 25 mg DHCT to 1 ml dH2O. […]
The treatment is applied by exposing the LECs-CCCs for five minutes in a small petri dish containing the treatment solution. The treatment solution is removed after five minutes exposure by a syringe and then the fresh PBS is added in the petri dish to wash away the treatment solution. The LECs-CCCs are washed three times. The changes of the LECS are monitored under a microscope. Microscope photographs are taken at 0, 2 and 5 minutes and after wash.

## CCN1C(=O)C=CC1=O [NEM, N-ethylmaleimide]
In vivo rabbit eyes [1]
  anterior chamber (AC) reaction: significantly reduces the AC reaction
In vivo rabbit eyes [2]
  LECs on the lens capsule bag under microscope: no LECs on the lens capsule bag
In vivo rabbit eyes [2]; 3 and 10 weeks follow up
  development of CPCO or PPCO: no CPCO or PPCO develops
In vivo rabbit eyes [2]; solution introduced directly
  intraocular inflammatory reaction: heavy intraocular inflammatory reaction in the early period and posterior synechiae
[3]
  LEC changes after five minutes of acute exposure: almost no changes are observed
[3]; after treatment
  LEC changes once put into PBS washing solution: shrink and large gaps form between the cells. The shrunken cells then detach
